Test results taken from patent publication US9737525B2, “Small molecule activators of NRF2 pathway” (The General Hospital Corporation, priority 2013, dated 2017).
Entries after “also recorded” stand apart in the source; their conditions may differ.

Columns and labels:
[1] = test system: NRF2-responsive proteins NQO1 and GCLM; test: Induction of NQO1 and GCLM proteins in differentiated ST14A cells (immunoblotting); type: cell-based, rat; details: differentiated HD mutant and wild type ST14A cells, 24 hours
Protocol: To assess protein levels, cell extracts were prepared from cells washed with PBS and lysed with buffer containing 2% SDS, Complete EDTA-free Protease Inhibitor Cocktail (Roche) and 1 mM phenylmethylsulfonyl fluoride. To prepare brain extracts for analysis, frozen mouse cortical tissues were homogenized in PBS containing protease inhibitors with an Kontes Pellet Pestle (Kimble/Kontes). They were later sonicated and lysed overnight at 4° C. in 2× volume of lysis buffer containing 2% SDS and protease inhibitors. Protein concentrations in ST14A cell extracts and homogenized cortical tissues were evaluated using a BCA analysis kit and normalized. Samples were prepared in a SDS buffer containing DTT and separated on bis-acrylamide protein gels via electrophoresis and transferred onto a 0.2 μm PVDF membrane). Membranes were probed for NQO1 (Sigma N5288, 1:1,000), GCLM, (Abcam ab126704, 1:800), SIRT2 (Sigma S8447, 1:2,500), histone H3 (Cell Signaling 4499, 1:2,000), acetylated H3 (K56) (Millipore 04-1135, 1:500), TNFα (Abcam ab1793, 1:1,500), GADPH (Millipore MAB374, 1:10,000), actin (Sigma A2066, 1:1250), α-tubulin (Sigma T6074, 1:20,000), and acetylated α-tubulin (Sigma T6793, 1:2,500) overnight in 5% milk in PBST at 4° C. on a rocker. Membranes were thrice washed in PBST for 15 min on a shaker and incubated in either an anti-rabbit-HRP (Bio-Rad 170-5046, 1:10,000) or anti-mouse-HRP (Sigma A3682, 1:4,000) secondary solution as appropriate in 3% milk in PBST for 1 hr at room temperature on a rocker. After four washes of 15 min in PBST on a shaker, blots were visualized using SuperSignal West Pico Chemiluminescent Substrate (Pierce 34080) or SuperSignal West Dura Extended Duration Substrate (Thermo 34075) and exposed on Scientific Imaging Film (Kodak 864 6770).
Compound bioactivity was tested in the rat embryonic striatal cell lines ST14A, which stably express either a mutant expanded repeat (128Q) or wild type (26Q) 546 amino acid huntingtin (HTT) fragment (a generous gift of E. Cattaneo) (Ehrlich et al., 2001) ST14A cells were propagated at 33° C. in the presence of serum. To induce neuronal differentiation, cells were serum deprived and cultured at 37° C. in the presence of N2 supplement. Cells were treated with compounds concurrently with induction of neuronal differentiation for 24 hours, as described (Quinti et al., 2010).
The NRF2 activation properties of further MIND4 structural analogs with variable potencies of SIRT2 inhibition were tested as described previously (see Table 1) Changes in expression of the canonical NRF2-responsive proteins NQO1 and GCLM, the transcription of which was induced by MIND4, was selected as a readout of pathway activation. Protein levels of NQO1 and GCLM were examined by immunoblotting in compound treated mutant HD and wild-type ST14A cells. […] This hypothesis was tested using a second panel of MIND4 analogs (see Table 3).

[2] = test system: LUHMES cells overexpressing aSyn; test: Viability assay (adenylate kinase release) in differentiated LUHMES cells overexpressing aSyn; type: cell-based; details: 0.4 μM and 1 μM, 96 hr
Protocol: LUHMES cells were maintained as proliferating cultures and differentiated into post-mitotic-like neurons on Nunclon plates and flasks, pre-coated with 50 μg/mL poly-L-ornithine (Sigma) and 1 μg/mL fibronectin (Sigma). Specifically, 8×10^6 proliferating LUHMES cells were seeded into a T175 flask containing proliferation medium, consisting of advanced DEMEM/F12 (Invitrogen), 2 mM L-glutamine (Sigma-Aldrich), 1×N2 supplement (Invitrogen) and 40 ng/mL recombinant human bFGF (R&D Systems). After 24 hr, proliferation medium was replaced with differentiation medium, composed of advanced DMEM/F12 (Invitrogen), 2 mM L-glutamine (Sigma-Aldrich), 1×N2 supplement (Invitrogen), 1 mM dibutyryl 3′, 5′-cyclic adenosine monophosphate (Sigma-Aldrich), 2.25 μM tetracycline and 2 ng/mL recombinant human GDNF (R&D Systems). 48 hr later, cells were trypsinized and seeded into 24-well plates, containing 1 mL of differentiation medium and 250,000 cells/well.
For lenti-virus based expression the following transfer plasmids have been constructed. […] The measurement of transgene expression has been determined by qRT PCR using SYBR GREEN, after infection of 293-Hek-cells, and specific primers to the woodchuck hepatitis virus posttranscriptional regulatory element (WPRE) as described previously (PMID: 12718761). […]

| Structure (SMILES) | Induction of NRF2-responsive proteins NQO1 and GCLM [1] | Protection against αSyn toxicity [2] |
| --- | --- | --- |
| O=[N+]([O-])c1ccc(Sc2nnc(COc3ccccc3)n2-c2ccccc2)c2ncccc12 [MIND4, 5-nitro-8-{[5-(phenoxymethyl)-4-phenyl-4H-1,2,4-triazol-3-yl]thio}quinoline] | induced dose-dependent increases of NQO1 and GCLM protein | only mild protection |
| O=[N+]([O-])c1ccc(Sc2nnc(COc3ccccc3)n2-c2ccccc2)nc1 [MIND4-17] | potently induces NRF2-responses; also recorded: dose-dependent induction of NQO1 protein | significant protective effects |
